Assay results published in patent publication EP0394553A2, “Use of fluorine containing pyridone carboxylic acid derivatives for preparing a medicament for the treatment of HIV infections” (DAIICHI PHARMACEUTICAL CO., LTD., priority 1989, dated 1990).
Like-named read-outs stand apart in the source and are kept apart here.

Tested on: HIV (LAV 1)
Assay: microbe, parasite or virus in culture
Details: for viability at 1 µg/mL / viability at 2.5 µg/mL / viability at 5 µg/mL / viability at 10 µg/mL: Human immunodeficiency virus 1, CCRF-CEM
How it was run: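 CEM cells were infected with HIV LAV 1 at MOI 0.05 and cultured with test substance at 10, 5, 2.5 or 1 mcg/ml, with medium exchanged periodically up to 30 days. Viable cell count and percentage were measured by trypan blue, and antigen-positive cells by immunofluorescence with anti-HIV antiserum, at 4–30 days. Values are means of two wells.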

[1] = 1 mcg/ml, 4-day addition, after 4 days
[2] = 1 mcg/ml, 4-day addition, after 7 days
[3] = 1 mcg/ml, 4-day addition, after 10 days
[4] = 1 mcg/ml, 4-day addition, after 30 days
[5] = 1 mcg/ml, continuous addition, after 4 days
[6] = 1 mcg/ml, continuous addition, after 7 days
[7] = 1 mcg/ml, continuous addition, after 10 days
[8] = 1 mcg/ml, continuous addition, after 30 days
[9] = 2.5 mcg/ml, 4-day addition, after 4 days
[10] = 2.5 mcg/ml, 4-day addition, after 7 days
[11] = 2.5 mcg/ml, 4-day addition, after 10 days
[12] = 2.5 mcg/ml, 4-day addition, after 20 days
[13] = 2.5 mcg/ml, 4-day addition, after 30 days
[14] = 2.5 mcg/ml, continuous addition, after 4 days
[15] = 2.5 mcg/ml, continuous addition, after 7 days
[16] = 2.5 mcg/ml, continuous addition, after 10 days
[17] = 2.5 mcg/ml, continuous addition, after 20 days
[18] = 2.5 mcg/ml, continuous addition, after 30 days
[19] = 5 mcg/ml, 4-day addition, after 4 days
[20] = 5 mcg/ml, 4-day addition, after 7 days
[21] = 5 mcg/ml, 4-day addition, after 10 days
[22] = 5 mcg/ml, 4-day addition, after 20 days
[23] = 5 mcg/ml, 4-day addition, after 30 days
[24] = 5 mcg/ml, continuous addition, after 4 days
[25] = 5 mcg/ml, continuous addition, after 7 days
[26] = 5 mcg/ml, continuous addition, after 10 days
[27] = 5 mcg/ml, continuous addition, after 20 days
[28] = 5 mcg/ml, continuous addition, after 30 days
[29] = 10 mcg/ml, 4-day addition, after 4 days
[30] = 10 mcg/ml, 4-day addition, after 7 days
[31] = 10 mcg/ml, 4-day addition, after 10 days
[32] = 10 mcg/ml, 4-day addition, after 20 days
[33] = 10 mcg/ml, 4-day addition, after 30 days
[34] = 10 mcg/ml, continuous addition, after 4 days
[35] = 10 mcg/ml, continuous addition, after 7 days
[36] = 10 mcg/ml, continuous addition, after 10 days
[37] = 10 mcg/ml, continuous addition, after 20 days
[38] = 10 mcg/ml, continuous addition, after 30 days

C[C@H]1COc2c(N3CCN(C)CC3)c(F)cc3c(=O)c(C(=O)O)cn1c23 [DR-3355, (-)-(S)-9-fluoro-2,3-dihydro-3-methyl-10-(4-methyl-1-piperazinyl)-7-oxo-7H-pyrido[1,2,3-de][1,4]benzoxazine-6-carboxylic acid hemihydrate]
Viable cell count [1]: 220 × 10⁴ cells/ml | Viral antigen-positive cell percentage [1]: 91% | Viable cell count [2]: 71 × 10⁴ cells/ml | Viral antigen-positive cell percentage [2]: 61% | Viable cell count [3]: 54 × 10⁴ cells/ml | Viral antigen-positive cell percentage [3]: 56% | Viable cell count (1 mcg/ml, 4-day addition, after 20 days): 3 × 10⁴ cells/ml | Viable cell count [4]: 68 × 10⁴ cells/ml | Viral antigen-positive cell percentage [4]: 16% | Viable cell count [5]: 190 × 10⁴ cells/ml | Viral antigen-positive cell percentage [5]: 88% | Viable cell count [6]: 65 × 10⁴ cells/ml | Viral antigen-positive cell percentage [6]: 52% | Viable cell count [7]: 110 × 10⁴ cells/ml | Viral antigen-positive cell percentage [7]: 43% | Viable cell count (1 mcg/ml, continuous addition, after 20 days): 11 × 10⁴ cells/ml | Viable cell count [8]: 360 × 10⁴ cells/ml | Viral antigen-positive cell percentage [8]: 15% | Viable cell count [9]: 190 × 10⁴ cells/ml | Viral antigen-positive cell percentage [9]: 88% | Viable cell count [10]: 76 × 10⁴ cells/ml | Viral antigen-positive cell percentage [10]: 53% | Viable cell count [11]: 280 × 10⁴ cells/ml | Viral antigen-positive cell percentage [11]: 44% | Viable cell count [12]: 230 × 10⁴ cells/ml | Viral antigen-positive cell percentage [12]: 30% | Viable cell count [13]: 130 × 10⁴ cells/ml | Viral antigen-positive cell percentage [13]: 10% | Viable cell count [14]: 210 × 10⁴ cells/ml | Viral antigen-positive cell percentage [14]: 87% | Viable cell count [15]: 53 × 10⁴ cells/ml | Viral antigen-positive cell percentage [15]: 51% | Viable cell count [16]: 290 × 10⁴ cells/ml | Viral antigen-positive cell percentage [16]: 25% | Viable cell count [17]: 390 × 10⁴ cells/ml | Viral antigen-positive cell percentage [17]: 35% | Viable cell count [18]: 270 × 10⁴ cells/ml | Viral antigen-positive cell percentage [18]: 11% | Viable cell count [19]: 190 × 10⁴ cells/ml | Viral antigen-positive cell percentage [19]: 90% | Viable cell count [20]: 78 × 10⁴ cells/ml | Viral antigen-positive cell percentage [20]: 59% | Viable cell count [21]: 320 × 10⁴ cells/ml | Viral antigen-positive cell percentage [21]: 33% | Viable cell count [22]: 190 × 10⁴ cells/ml | Viral antigen-positive cell percentage [22]: 36% | Viable cell count [23]: 360 × 10⁴ cells/ml | Viral antigen-positive cell percentage [23]: 2% | Viable cell count [24]: 160 × 10⁴ cells/ml | Viral antigen-positive cell percentage [24]: 87% | Viable cell count [25]: 51 × 10⁴ cells/ml | Viral antigen-positive cell percentage [25]: 53% | Viable cell count [26]: 260 × 10⁴ cells/ml | Viral antigen-positive cell percentage [26]: 37% | Viable cell count [27]: 320 × 10⁴ cells/ml | Viral antigen-positive cell percentage [27]: 29% | Viable cell count [28]: 210 × 10⁴ cells/ml | Viral antigen-positive cell percentage [28]: 4% | Viable cell count [29]: 170 × 10⁴ cells/ml | Viral antigen-positive cell percentage [29]: 88% | Viable cell count [30]: 50 × 10⁴ cells/ml | Viral antigen-positive cell percentage [30]: 57% | Viable cell count [31]: 280 × 10⁴ cells/ml | Viral antigen-positive cell percentage [31]: 31% | Viable cell count [32]: 230 × 10⁴ cells/ml | Viral antigen-positive cell percentage [32]: 19% | Viable cell count [33]: 320 × 10⁴ cells/ml | Viral antigen-positive cell percentage [33]: ≦1% | Viable cell count [34]: 160 × 10⁴ cells/ml | Viral antigen-positive cell percentage [34]: 89% | Viable cell count [35]: 43 × 10⁴ cells/ml | Viral antigen-positive cell percentage [35]: 55% | Viable cell count [36]: 220 × 10⁴ cells/ml | Viral antigen-positive cell percentage [36]: 31% | Viable cell count [37]: 260 × 10⁴ cells/ml | Viral antigen-positive cell percentage [37]: 21% | Viable cell count [38]: 260 × 10⁴ cells/ml | Viral antigen-positive cell percentage [38]: 4% | viability at 1 µg/mL (96 h, read-out: Viable cell percentage, 1 mcg/ml, 4-day addition, after 4 days): 95% | viability at 1 µg/mL (96 h, read-out: Viable cell percentage, 1 mcg/ml, continuous addition, after 4 days): 94% | viability at 2.5 µg/mL (96 h, read-out: Viable cell percentage, 2.5 mcg/ml, 4-day addition, after 4 days): 94% | viability at 2.5 µg/mL (96 h, read-out: Viable cell percentage, 2.5 mcg/ml, continuous addition, after 4 days): 94% | viability at 5 µg/mL (96 h, read-out: Viable cell percentage, 5 mcg/ml, 4-day addition, after 4 days): 91% | viability at 5 µg/mL (96 h, read-out: Viable cell percentage, 5 mcg/ml, continuous addition, after 4 days): 89% | viability at 10 µg/mL (96 h, read-out: Viable cell percentage, 10 mcg/ml, 4-day addition, after 4 days): 92% | viability at 10 µg/mL (96 h, read-out: Viable cell percentage, 10 mcg/ml, continuous addition, after 4 days): 91% | viability at 1 µg/mL (168 h, read-out: Viable cell percentage, 1 mcg/ml, continuous addition, after 7 days): 69% | viability at 2.5 µg/mL (168 h, read-out: Viable cell percentage, 2.5 mcg/ml, continuous addition, after 7 days): 68% | viability at 5 µg/mL (168 h, read-out: Viable cell percentage, 5 mcg/ml, continuous addition, after 7 days): 66% | viability at 10 µg/mL (168 h, read-out: Viable cell percentage, 10 mcg/ml, continuous addition, after 7 days): 75% | viability at 1 µg/mL (240 h, read-out: Viable cell percentage, 1 mcg/ml, continuous addition, after 10 days): 61% | viability at 2.5 µg/mL (240 h, read-out: Viable cell percentage, 2.5 mcg/ml, continuous addition, after 10 days): 94% | viability at 5 µg/mL (240 h, read-out: Viable cell percentage, 5 mcg/ml, continuous addition, after 10 days): 95% | viability at 10 µg/mL (240 h, read-out: Viable cell percentage, 10 mcg/ml, continuous addition, after 10 days): 92% | viability at 1 µg/mL (480 h, read-out: Viable cell percentage, 1 mcg/ml, continuous addition, after 20 days): 50% | viability at 2.5 µg/mL (480 h, read-out: Viable cell percentage, 2.5 mcg/ml, continuous addition, after 20 days): 95% | viability at 5 µg/mL (480 h, read-out: Viable cell percentage, 5 mcg/ml, continuous addition, after 20 days): 89% | viability at 10 µg/mL (480 h, read-out: Viable cell percentage, 10 mcg/ml, continuous addition, after 20 days): 87% | viability at 1 µg/mL (read-out: Viable cell percentage, 1 mcg/ml, 4-day addition, after 7 days): 70% | viability at 1 µg/mL (read-out: Viable cell percentage, 1 mcg/ml, 4-day addition, after 10 days): 61% | viability at 1 µg/mL (read-out: Viable cell percentage, 1 mcg/ml, 4-day addition, after 20 days): 20% | viability at 1 µg/mL (read-out: Viable cell percentage, 1 mcg/ml, 4-day addition, after 30 days): 98% | viability at 1 µg/mL (read-out: Viable cell percentage, 1 mcg/ml, continuous addition, after 30 days): 98% | viability at 2.5 µg/mL (read-out: Viable cell percentage, 2.5 mcg/ml, 4-day addition, after 7 days): 80% | viability at 2.5 µg/mL (read-out: Viable cell percentage, 2.5 mcg/ml, 4-day addition, after 10 days): 92% | viability at 2.5 µg/mL (read-out: Viable cell percentage, 2.5 mcg/ml, 4-day addition, after 20 days): 87% | viability at 2.5 µg/mL (read-out: Viable cell percentage, 2.5 mcg/ml, 4-day addition, after 30 days): 83% | viability at 2.5 µg/mL (read-out: Viable cell percentage, 2.5 mcg/ml, continuous addition, after 30 days): 88% | viability at 5 µg/mL (read-out: Viable cell percentage, 5 mcg/ml, 4-day addition, after 7 days): 76% | viability at 5 µg/mL (read-out: Viable cell percentage, 5 mcg/ml, 4-day addition, after 10 days): 95% | viability at 5 µg/mL (read-out: Viable cell percentage, 5 mcg/ml, 4-day addition, after 20 days): 87% | viability at 5 µg/mL (read-out: Viable cell percentage, 5 mcg/ml, 4-day addition, after 30 days): 92% | viability at 5 µg/mL (read-out: Viable cell percentage, 5 mcg/ml, continuous addition, after 30 days): 75% | viability at 10 µg/mL (read-out: Viable cell percentage, 10 mcg/ml, 4-day addition, after 7 days): 68% | viability at 10 µg/mL (read-out: Viable cell percentage, 10 mcg/ml, 4-day addition, after 10 days): 94% | viability at 10 µg/mL (read-out: Viable cell percentage, 10 mcg/ml, 4-day addition, after 20 days): 85% | viability at 10 µg/mL (read-out: Viable cell percentage, 10 mcg/ml, 4-day addition, after 30 days): 92% | viability at 10 µg/mL (read-out: Viable cell percentage, 10 mcg/ml, continuous addition, after 30 days): 83%
